Data on three compounds can be found in patent US11673889B2, “Substituted imidazo[4,5-c][1,8]naphthyridines as phosphodiesterase inhibitors” (Nanjing Zhengxiang Pharmaceuticals Co., Ltd., priority 2019, dated 2023).

Each structure is given as a SMILES string.

The subject of assay [1] is cGAMP activated THP-1 cells. The assay can be described thus: ENPP1 inhibitors screening on cGAMP activated THP-1 cells (IFN-β ELISA). To be noted: THP-1 cells with 2′3′-cGAMP, 24 hours, FIGS. 1A-1E. In kind it is cell-based. The protocol:
THP-1 cells from bulk cultures were counted and suspended in RPMI 1640, 20% FBS, 2.5 mM L-alanyl-L-glutamine at a concentration of 5.5×10^6 cells/mL. The THP-1 cells were subsequently seeded into 96 well round bottom plates 180 μL/well (1×10^6 cells per well), incubated for 1 hour at 37° C., 5% CO2.
Test compounds were screened in triplicate on THP-1 cells at a final concentration of 10 μM. A working solutions at 0.2 mM. Each well contains 180 μL of THP-1 cell suspension, 10 μL (30 μM, 40 μM or 50 μM) 2′3′-cGAMP (InvivoGen, catalog #tlrl-nacga23) solution (600 μM, 800 μM or 1000 μM) and 10 μL test compound working solution. Incubate for 1 hour.
Vehicle control wells contain 2′3′-cGAMP at concentrations of […] and 50 μM without any test compound. Positive control, 2′3′-cGAMP or 2′,3′-cGAM(PS)2 (Rp/Sp) (InvivoGen, cat #tlrl-nacga2srs) at 40 μM and 80 μM (final concentration).
The final assay volume were 200 μL/well contains: 1) THP-1 cells=180 μL, 2) test compounds=10 μL, 3) 2′3′-cGAMP or 2′3′-cGAM(PS)2 (Rp/Sp) or vehicle control=10 μL.
After incubation for 24 hours at 37° C., 5% CO2, the supernatants were harvested at 200×g for 10 minutes. Cell culture supernatants were then transferred to a clean plate and stored at −80° C. until ready to analyze for IFN-β levels. The IFN-β levels in cell culture supernatants were determined by ELISA kits (PBL Assay Science, catalog #41410) according to the manufacturer's instructions.
The % increase measured for IFN-β in cells treated by the test compounds 12, 48, 89, 103 and 121 relative to that of untreated cells were tested (as shown in FIGS. 1A-1E).

The target in another assay is T1, human soluble ENPP1 (Homo sapiens, UniProt P22413).
T1 construct: 20 ng of human soluble ENPP1
T1 sequence (P22413 103-925 limits assumed): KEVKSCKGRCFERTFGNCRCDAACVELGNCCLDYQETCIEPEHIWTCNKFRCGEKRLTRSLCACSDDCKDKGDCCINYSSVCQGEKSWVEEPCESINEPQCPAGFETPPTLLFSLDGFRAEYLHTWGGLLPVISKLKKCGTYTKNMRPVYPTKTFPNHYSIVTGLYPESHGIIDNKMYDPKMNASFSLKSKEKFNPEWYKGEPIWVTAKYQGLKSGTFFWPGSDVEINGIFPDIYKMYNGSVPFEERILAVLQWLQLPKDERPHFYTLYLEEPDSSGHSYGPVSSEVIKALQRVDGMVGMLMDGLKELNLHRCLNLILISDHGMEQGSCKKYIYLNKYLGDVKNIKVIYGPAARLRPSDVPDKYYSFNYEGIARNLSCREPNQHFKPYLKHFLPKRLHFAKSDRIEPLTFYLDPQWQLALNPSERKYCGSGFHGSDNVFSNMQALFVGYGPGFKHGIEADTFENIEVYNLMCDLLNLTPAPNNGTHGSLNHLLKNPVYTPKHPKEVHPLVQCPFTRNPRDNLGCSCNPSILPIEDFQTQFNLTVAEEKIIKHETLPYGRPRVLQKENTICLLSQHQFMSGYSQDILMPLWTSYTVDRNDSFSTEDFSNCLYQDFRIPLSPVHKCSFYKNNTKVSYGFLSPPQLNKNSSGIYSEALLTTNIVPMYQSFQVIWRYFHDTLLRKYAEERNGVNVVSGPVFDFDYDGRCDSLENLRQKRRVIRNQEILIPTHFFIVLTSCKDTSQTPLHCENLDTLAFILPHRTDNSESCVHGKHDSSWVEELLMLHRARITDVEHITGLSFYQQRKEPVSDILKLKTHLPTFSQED
The assay can be described thus: ENPP1 activity assay using p-Nitrophenyl-5′-TMP as a substrate. Format: biochemical. Summed up:
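Human soluble ENPP1 (20 ng) was preincubated with inhibitor for 30 min at room temperature. TMP-pNP was then added as a 2 mM […] solution and incubated 1 h at RT, with p-nitrophenol formation read by OD. IC50 came from four-parameter fits of % inhibition relative to no-inhibitor and blank controls.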

Take `COc1cc2ncc3ncn(Cc4ccc(S(N)(=O)=O)cn4)c3c2cc1OC` [Compound 12, 6-((7,8-dimethoxy-1H-imidazo[4,5-c]quinolin-1-yl)methyl)pyridine-3-sulfonamide]: the “% increase measured for IFN-β relative to that of untreated cells” value in assay [1] was “potently increased the IFN-β levels at very low concentrations”. The IC50 (commonly the point on the concentration scale where inhibition reaches its midpoint) against human soluble ENPP1 is 1200 pM.
For the compound `COc1ccc2c(n1)nc(C)c1nc(C)n(Cc3ccc(S(N)(=O)=O)cn3)c12` [Compound 89, 6-((7-methoxy-2,4-dimethyl-1H-imidazo[4,5-c][1,8]naphthyridin-1-yl)methyl)pyridine-3-sulfonamide], in assay [1], the “% increase measured for IFN-β relative to that of untreated cells” value is “potently increased the IFN-β levels at very low concentrations”. Further, at human soluble ENPP1, inhibition was half-maximal at 520 pM (IC50).
For the compound `COc1ccc2c(ncc3nc(C)n(Cc4ccc(S(N)(=O)=O)cc4)c32)n1` [Compound 48, 4-((7-methoxy-2-methyl-1H-imidazo[4,5-c][1,8]naphthyridin-1-yl)methyl)benzenesulfonamide], in assay [1], the “% increase measured for IFN-β relative to that of untreated cells” value is given as “potently increased the IFN-β levels at very low concentrations”. In addition, the IC50 at human soluble ENPP1 is 290 pM.
